Test results as given in patent US20030138946A1.

Columns and labels:
normal B6 CD8^+ cells = assay: Proliferation of normal (nontransgenic) B6 CD8+ cells to peptide on L^d.B7.ICAM Drosophila APC; format: cell-based, mouse; details: 10 μM peptide, L^d.B7.1CAM APC, 1×10^6 responder cells, no added cytokines
Experimental: The capacity of L^d.B7.1CAM Drosophila cells to induce a strong primary response of 2C TCR transgenic CD8^+ cells raised the question whether Drosophila cells could act as antigen-presenting cells for normal (nontransgenic) CD8^+ cells. Since the 2C mice were on a B6 (H-2b) background, the response of normal B6 CD8^+ cells was tested. Graded doses of CD8^+ cells from normal B6 mice were cultured with 10 μM QL9 peptide presented by L^d.B7.1CAM Drosophila antigen-presenting cells, i.e. a situation where a diverse repertoire of T-cells was exposed to only a single alloantigen (L^d+QL9) but at high concentration. As shown in FIG. 19 (left), presentation of QL9 by L^d.B7.1CAM antigen-presenting cells was indeed immunogenic for normal B6 CD8^+ cells and led to appreciable proliferative responses on Day 3 (80,000 cpm) with large doses of responder cells (1×10^6) in the absence of added cytokines; responses to an unrelated peptide, MCMV, were much lower (though significant) and no response occurred in the absence of peptide. As expected, the response of normal B6 CD8+cells to QL9 plus L^d.B7.1CAM antigen-presenting cells was substantially lower than with normal B10.D2 spleen cells as antigen-presenting cells (where the allostimulus was provided by a multiplicity of self peptides bound to L^d, K^d and D^d, but at low concentration) (FIG. 19, right. Note the difference in the Y axis scales).

CD8^+ 2C cells = assay: Dose-response of day 3 proliferation of CD8+ 2C cells to peptides on transfected Drosophila APC; format: cell-based, mouse; details: for proliferative response: 1 nM peptide
Experimental: Responses to p2Ca (above) and QL9 (below) were measured by culturing 5×10^4 purified CD8^+ 2C cells with 2×10^5 Drosophila cells in the presence or absence of the indicated concentrations of peptides for 3 days. [^3H] TdR was added during the last 8 hours of culture; rIL-2 was added at a final concentration of 20 units/ml. The data are the mean of triplicate cultures. When supplemented with exogenous IL-2, however, both peptides stimulated significant proliferative responses at high doses (10 μM). The proliferative responses elicited by QL9 were far stronger than for p2Ca (note the large difference between the scales of x-axes of the upper and the lower panel).
Dose-response relationships for proliferation on day 3 elicited by Drosophila cells transfected with L^d.B7.1CAM and presenting p2Ca peptide were compared to those elicited by Drosophila cells transfected with L^d.B7, L^d.ICAM or L^d.B7.1CAM presenting QL9 peptide. Drosophila APC (2×10^5 cells) were cultured with 5×10^4 CD8^+ 2C cells for three days in the presence or absence of peptides. [^3H] TdR was added during the last 8 hours of culture; no IL-2 was added to the cultures.

[1] = system: RMA.S cells (target cells) expressing L^d; format: cell-based, mouse
soluble 2C TCR molecules = details: peptide complexed to L^d; association constant; cited from earlier work
2C+ T-cells = assay: Rosetting of 2C+ T-cells with L^d-bearing supports plus peptide; format: cell-based, mouse; details: peptide 0.02 mM
Experimental: Rosetting experiments verified that the attached MHC molecules interacted functionally with T-cells. Drosophila S2 cells expressing L^d, L^d-coated SRBC were incubated with QL9 peptide (0.02 mM) or an irrelevant peptide (MCMV, 0.02 mM) for 30 minutes on ice; 2C+ T-cells were then added, the proportion being 10 2C+ T-cells for 1 Drosophila S2 cell, or 10 SRBC for 1 2C+ T-cell; the mixture was pelleted and kept on ice for at least 30 min. Cells were then carefully resuspended and rosettes were counted, a rosette being a Drosophila S2 cell bound to at least 3 2C+ T-cells, or a 2C+ T-cell bound to at least 3 SRBC. […] Typically, 30-40% of the lymphocytes were included in rosettes when QL9 peptide was added.
Rosetting experiments verified that the attached MHC molecules on latex beads interacted functionally with T-cells. Drosophila S2 cells expressing recombinant L^d and L^d-coated latex beads were incubated with QL9 peptide (0.02 mM) or an irrelevant peptide (MCMV, 0.02 mM) for 30 minutes on ice; 2C+ T-cells were then added, the proportion being 10 2C+ T-cells for 1 Drosophila S2 cell, or […]; the mixture was pelleted and kept on ice for at least 30 min. Cells were then carefully resuspended and rosettes were counted, a rosette being a Drosophila S2 cell bound to at least 3 2C+ T-cells, or a 2C+ T-cell bound to at least 3 latex beads. […]

[2] = system: CD8^+ 2C lymph node cells; assay: IL-2 production by CD8+ 2C lymph node cells (CTLL indicator line 3HTdR); format: cell-based, mouse; details: peptide 10 μM
Experimental: Using a standard tissue culture system (Cai, Z. and Sprent, J. (1994) J. Exp. Med. 179: 2005-2015), doses of 5×10^4 purified CD8^+ 2C lymph node (LN) cells were cultured at 37° C. with doses of 3×10^5 transfected fly cells ±peptides (10 μM final concentration). Peptides were synthesized by R. W. Johnson Pharmaceutical Research Institute (Sykulev, et al. (1994) Immunity 1: 15-22. Proliferative responses were measured by adding ^3HTdR (1 μCi/well) 8 hours prior to harvest. IL-2 production was measured by removing supernatants from the cultures at 48 hours and adding 50 μl supernatant to an IL-2 responsive indicator cell line (CTLL); proliferation of the indicator line was measured by addition of ^3HTdR. The data shown in Table 2 are the means of triplicate cultures. The transfected Drosophila S2 cells die rapidly at 37° C. and fail to incorporate ^3HTdR at this temperature.

For “Gln-Leu-Ser-Pro-Phe-Pro-Phe-Asp-Leu [QL9]”, the “proliferative response on Day 3” value (normal B6 CD8^+ cells) was 80,000 cpm, the proliferative response (CD8^+ 2C cells; L^d.B7 and L^d.ICAM APC) was under 100 cpm and the proliferative response (CD8^+ 2C cells; L^d.B7.1CAM APC) was > 10,000 cpm. The “effect of high peptide dose on day 3 proliferative response” value (CD8^+ 2C cells; 10 μM peptide, L^d.B7.1CAM APC) was “inhibited”, the “proliferation of 2C CD8+ cells” value (CD8^+ 2C cells; Drosophila cells with L^d alone, no exogenous lymphokines) was “failed” and the “lowest peptide dose with clearly apparent day 3 proliferative response” value (CD8^+ 2C cells; L^d.B7.1CAM APC, no IL-2) was at most 10 pM. For the same substance, the “peptide concentration giving maximal day 3 proliferative response” value (CD8^+ 2C cells; L^d.B7.1CAM APC, no IL-2) was 100 nM, the “lysis of target cells in the presence of peptide” value [1] was “observed” and the “affinity for 2C TCR molecules” value (soluble 2C TCR molecules) was 2e+07 M⁻¹. For the same substance, the “lymphocytes included in rosettes” value (2C+ T-cells; Drosophila S2 cells expressing L^d or L^d-coated SRBC) was 30-40%, the “lymphocytes included in rosettes” value (2C+ T-cells; Drosophila S2 cells expressing L^d or L^d-coated latex beads) was 30-40% and the “IL-2 Production (Day 2) ^3HTdR incorporation, fly cells expressing L^d” value ([2]; APC L^d) was 0.1 cpm × 10^3. The “IL-2 Production (Day 2) ^3HTdR incorporation, fly cells expressing L^d + B7.1” value ([2]; APC L^d + B7.1) was 0.4 cpm × 10^3, the “IL-2 Production (Day 2) ^3HTdR incorporation, fly cells expressing L^d + B7.1 + ICAM-1” value ([2]; APC L^d + B7.1 + ICAM-1) was 158.6 cpm × 10^3 and the “IL-2 Production (Day 2) ^3HTdR incorporation, fly cells expressing L^d + ICAM-1” value ([2]; APC L^d + ICAM-1) was 0.2 cpm × 10^3. The “IL-2 Production (Day 2) ^3HTdR incorporation, L^d + B7.1 combined with L^d + ICAM-1” value ([2]; mixture of two APC lines) was 0.5 cpm × 10^3.
